Measurements taken from ChEMBL document CHEMBL1201862, “PubChem BioAssay data set” (2004).
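Exposure lasted 48 hours, with cells grown in 96-well plates and compounds tested at five concentrations. GI50 is the concentration that inhibits growth by half.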 Calls of active or inactive are those of the source. Rule as the data show it: active = GI50 up to about 1.1 µM and inactive = higher.

Key:
Assay in all cases: inhibition of tumour cell growth, NCI panel, 48 h
SK-MEL-5 = tested on: SK-MEL-5
SNB-19 = tested on: SNB-19
EKVX = tested on: EKVX
Malme-3M = tested on: Malme-3M
COLO 205 = tested on: COLO 205
SK-OV-3 = tested on: SK-OV-3
SF-295 = tested on: SF-295
TK-10 = tested on: TK-10
NCI-H23 = tested on: NCI-H23
SN12C = tested on: SN12C
U-251 = tested on: U-251
OVCAR-4 = tested on: OVCAR-4
MOLT-4 = tested on: MOLT-4
UO-31 = tested on: UO-31
NCI-H460 = tested on: NCI-H460
OVCAR-8 = tested on: OVCAR-8
OVCAR-3 = tested on: OVCAR-3
SF-268 = tested on: SF-268
HCC 2998 = tested on: HCC 2998
LOX IMVI = tested on: LOX IMVI

Measured: GI50

CC12CCC(=O)N1c1cnccc1N2 (stereo not drawn)
inactive: SK-MEL-5 > 100 µM | SNB-19 > 100 µM | EKVX > 100 µM | Malme-3M > 100 µM | COLO 205 > 100 µM | SK-OV-3 > 100 µM | SF-295 > 100 µM | TK-10 > 100 µM | NCI-H23 > 100 µM | SN12C > 100 µM | U-251 > 100 µM | OVCAR-4 > 100 µM | MOLT-4 > 100 µM | UO-31 > 100 µM | NCI-H460 > 100 µM | OVCAR-8 > 100 µM | OVCAR-3 > 100 µM | SF-268 > 100 µM | HCC 2998 > 100 µM

CCOc1ncn(-c2ccc(NC(=S)Nc3cccc(O)c3)cc2)n1
inactive: LOX IMVI > 100 µM | SK-MEL-5 > 100 µM | SNB-19 > 100 µM | EKVX > 100 µM | COLO 205 > 100 µM | SK-OV-3 > 100 µM | SF-295 > 100 µM | TK-10 > 100 µM | NCI-H23 > 100 µM | SN12C > 100 µM | U-251 > 100 µM | OVCAR-4 > 100 µM | MOLT-4 > 100 µM | UO-31 > 100 µM | NCI-H460 > 100 µM | OVCAR-8 > 100 µM | OVCAR-3 > 100 µM | SF-268 > 100 µM | HCC 2998 > 100 µM

CC(=O)O[C@H]1CC[C@H]2[C@@H]3CCC(C(C)=O)[C@H](C(=O)O)[C@H]3CC[C@]12C (stereo partly drawn)
inactive: SK-MEL-5 > 100 µM | SNB-19 > 100 µM | EKVX > 100 µM | Malme-3M > 100 µM | COLO 205 > 100 µM | SK-OV-3 > 100 µM | SF-295 > 100 µM | TK-10 > 100 µM | NCI-H23 > 100 µM | U-251 > 100 µM | OVCAR-4 > 100 µM | MOLT-4 > 100 µM | UO-31 > 100 µM | NCI-H460 > 100 µM | OVCAR-8 > 100 µM | OVCAR-3 > 100 µM | SF-268 > 100 µM | HCC 2998 > 100 µM

COc1cc(OC)cc(Oc2nc3cc(F)c(F)cc3nc2-c2ccccc2)c1
inactive: LOX IMVI > 100 µM | SK-MEL-5 > 100 µM | SNB-19 > 100 µM | EKVX > 100 µM | Malme-3M > 100 µM | COLO 205 > 100 µM | SK-OV-3 > 100 µM | SF-295 > 100 µM | TK-10 > 100 µM | NCI-H23 > 100 µM | SN12C > 100 µM | U-251 > 100 µM | OVCAR-4 > 100 µM | MOLT-4 > 100 µM | UO-31 > 100 µM | NCI-H460 > 100 µM | OVCAR-8 > 100 µM | OVCAR-3 > 100 µM | SF-268 > 100 µM

CC(=O)OCCOCn1cc(C=O)c2ccccc21
inactive: LOX IMVI > 100 µM | SK-MEL-5 75 µM | SNB-19 > 100 µM | EKVX > 100 µM | Malme-3M > 100 µM | COLO 205 > 100 µM | SK-OV-3 > 100 µM | SF-295 > 100 µM | TK-10 > 100 µM | NCI-H23 > 100 µM | SN12C > 100 µM | U-251 > 100 µM | MOLT-4 > 100 µM | UO-31 > 100 µM | NCI-H460 33.2 µM | OVCAR-8 > 100 µM | OVCAR-3 > 100 µM | SF-268 > 100 µM | HCC 2998 > 100 µM

Cc1c(C#N)c(N)[nH]c(=S)c1C#N
inactive: LOX IMVI > 100 µM | SK-MEL-5 > 100 µM | SNB-19 > 100 µM | EKVX > 100 µM | Malme-3M > 100 µM | SF-295 > 100 µM | TK-10 > 100 µM | NCI-H23 > 100 µM | SN12C > 100 µM | U-251 > 100 µM | MOLT-4 > 100 µM | UO-31 > 100 µM | NCI-H460 > 100 µM | OVCAR-8 > 100 µM | OVCAR-3 > 100 µM | SF-268 > 100 µM | HCC 2998 > 100 µM

COc1ccc2nc3c(C)cc4ccccc4n3c2c1
inactive: SK-MEL-5 57.9 µM | SNB-19 > 100 µM | EKVX 19.2 µM | Malme-3M > 100 µM | COLO 205 > 10 µM | SK-OV-3 > 100 µM | SF-295 78.7 µM | TK-10 80.2 µM | NCI-H23 > 100 µM | SN12C > 100 µM | U-251 44.7 µM | MOLT-4 23 µM | UO-31 52 µM | NCI-H460 25.3 µM | OVCAR-8 72.1 µM | OVCAR-3 71 µM | SF-268 86.9 µM | HCC 2998 > 100 µM

CN1C(=O)C(C#N)C2C[C@@]1(C)Oc1ccccc12 (stereo partly drawn)
inactive: LOX IMVI > 100 µM | SK-MEL-5 > 100 µM | SNB-19 > 100 µM | EKVX > 100 µM | COLO 205 > 100 µM | SK-OV-3 > 100 µM | SF-295 > 100 µM | TK-10 > 100 µM | NCI-H23 > 100 µM | U-251 > 100 µM | OVCAR-4 > 100 µM | MOLT-4 7.29 µM | UO-31 > 100 µM | NCI-H460 91.8 µM | OVCAR-8 > 100 µM | OVCAR-3 > 100 µM | SF-268 > 100 µM | HCC 2998 > 100 µM

C=C1CC[C@@H](Br)C(C)(C)[C@]12CCC(C)(O)C(Cl)C2 (stereo partly drawn)
inactive: LOX IMVI 19.1 µM | SK-MEL-5 20.9 µM | SNB-19 19.8 µM | EKVX 19.1 µM | Malme-3M 30.3 µM | COLO 205 16 µM | SK-OV-3 19.5 µM | SF-295 20.6 µM | TK-10 29.2 µM | NCI-H23 26.1 µM | SN12C 16.4 µM | U-251 16.2 µM | MOLT-4 18.7 µM | UO-31 18.1 µM | NCI-H460 17 µM | OVCAR-8 18.7 µM | OVCAR-3 20.3 µM | SF-268 17.4 µM | HCC 2998 23.3 µM

CC(=O)/N=C1\N/C(=C/c2cc([N+](=O)[O-])ccc2O)CN1C
inactive: LOX IMVI > 100 µM | SK-MEL-5 > 100 µM | SNB-19 > 100 µM | EKVX > 100 µM | COLO 205 > 100 µM | SK-OV-3 > 100 µM | SF-295 > 100 µM | TK-10 > 100 µM | NCI-H23 > 100 µM | SN12C > 100 µM | U-251 > 100 µM | OVCAR-4 > 100 µM | MOLT-4 6.31 µM | UO-31 > 100 µM | NCI-H460 > 100 µM | OVCAR-8 > 100 µM | OVCAR-3 > 100 µM | HCC 2998 > 100 µM

O=C1OC(CN2CCOCC2)CN1/N=C/c1ccc([N+](=O)[O-])o1 (stereo not drawn) [FURALTADONE]
inactive: LOX IMVI 21.7 µM | SK-MEL-5 23.6 µM | SNB-19 86.1 µM | EKVX 63.7 µM | Malme-3M 22.7 µM | COLO 205 27.5 µM | SK-OV-3 74.6 µM | SF-295 34.9 µM | TK-10 > 100 µM | NCI-H23 22.9 µM | SN12C 28.7 µM | U-251 31.6 µM | OVCAR-4 45.5 µM | MOLT-4 51.6 µM | UO-31 97.1 µM | NCI-H460 31.4 µM | OVCAR-8 45.8 µM | OVCAR-3 21.9 µM | SF-268 60.3 µM
